{
  "source": "patent US20180118721A1",
  "about": "“PYRIMIDINE DERIVATIVES” (Merck Patent GmbH, priority 2015, published 2018)",
  "test": "Shake flask solubility measurement",
  "assay_type": "physicochemical",
  "conditions": "aqueous buffer, thermodynamic from solid, phosphate buffer pH 7.4, 37° C.",
  "procedure": "Compound solubility in aqueous solution is determined by a standard method in the art, the shake flask method. Solubility measurement is performed under equilibrium conditions at pH 7.4. Samples are prepared by dissolving an excess of the test compound in a phosphate buffer (made up of 3,954 g sodium hydrogenphosphate-monohydrate, 6,024 g sodium chloride, 950 ml ultrapure water and adjusted to pH 7.4 with 0.1 M NaOH or 0.1 M HCl). These samples are shaken at 37° C. with 450 rpm (shaker: TiMix control Bühler) for 24 h in total until equilibrium is reached. After 7 hours shaking, the pH value of the sample is controlled and adjusted, if necessary. It is also checked that the sample (test compound) is available in excess. Shortly before the end of 24 h, samples are checked again for pH and precipitate. At the end of 24 h and after separation of the solid by filtration, the concentration of the compound in the filtrate is determined by liquid chromatography using […] (LC-UV).\nSample preparation: Incubation hood: TH 15 Bühler; pH device 766 Calimatic Knick; pH electrode InLab 423 Mettler\nChromatography Conditions:\nColumn: Chromolith RP18e 100×3 mm\nWavelength range: 190-400 nm • select a suitable evaluation wavelength\nInjection volume: Probe 5 μl and 15 μl; Standard 5 μl\nColumn stove temperature: 37° C.\nEluent A: water/formic acid (999:1; v/v)\nEluent B: acetonitrile/formic acid (999:1; v/v)",
  "data": [
    {"compound": "CNc1cc(-c2cccc(Cl)c2Cl)nc(N)n1", "note": "[TH-287, reference compound]", "values": [
      {"measurement": "solubility at 24 h", "value": 22, "unit": "µg/mL"}
    ]}
  ]
}
